In publication PMC4459817, “Vasculotide reduces endothelial permeability and tumor cell extravasation in the absence of binding to or agonistic activation of Tie2” (EMBO Molecular Medicine, 2015):
Entries after “also recorded” stand apart in the source; their conditions may differ.

Key:
mouse Tie2-Fc (mTie2-Fc) = molecular target: T1, mouse Tie2-Fc (mTie2-Fc) (Mus musculus, UniProt Q02858); test: SPR binding to mouse Tie2-Fc; settings: mouse Tie2-Fc (low- and high-density), 37°C, pH 7.4, Supplementary Fig S3
T1 construct: Purified human or mouse Tie2-Fc (i.e., Fc-conjugated extracellular domains of Tie2); purchased R&D Systems 762-T2-100
Source text: To better understand the difficulties we had in observing Tie2 activation by VT, we sought to characterize the binding affinity and kinetics of VT to Tie2. Purified human or mouse Tie2-Fc (i.e., Fc-conjugated extracellular domains of Tie2) were first coupled to protein A sepharose beads for pull-down experiments (Fig9A and B) or immobilized on a Biacore CM5 sensor chip for surface plasmon resonance (SPR) experiments (Fig9C and Supplementary Fig S3). […]
9. Tie2 Receptor-Binding Assays
Vasculotide (VT) was manufactured by Bachem UK Ltd. T7c (CHHHRHSF) was synthesized by Genscript (Piscataway, NJ, USA). PEG-Cys consists of a single cysteine reacted to each of the 4 arms of PEG-maleimide (Sunbright PTE-100MA, NOF Corporation, Tokyo, Japan). BowAng1 (Ang1-Fd-Fc-Fd) was made and provided by Regeneron Pharmaceuticals, Inc. (Tarrytown, NY, USA). COMP-Ang1 was purified in the Kerbel lab from serum-free culture media conditioned by an engineered CHO cell line provided by Dr. Gou Young Koh (KAIST), according to published protocols (Hwang et al, 2008).
Recombinant human Angiopoietin-1 (rhAng1) and Vascular Endothelial Growth Factor ( rhVEGF) were […]
purchased from R&D Systems. […]
(structural/molecular weight control for VT), and 40 μL of supernatant (7% of residual/unbound ligand) – were similarly boiled in SDS sample buffer. […]
Binding analysis were performed by exposure of immobilized mTie2-Fc to the analytes diluted in HBS-EP (0.01M HEPES pH 7.4, 0.15M NaCl, 3mM EDTA, 0.005% v/v Tween-20), which was supplemented with 1mg/mL carboxymethyl dextran (NSB reducer, GE Healthcare) to reduce non-specific binding to the sensor chip. […] To quantitatively determine the kinetic properties of the interaction (KD, kd, ka) and avoid mass transport limitations, mTie2-Fc and hTie2-Fc were immobilized at low density (1,000-1,200RU) onto separate flow cells of the CM5 chip using amine coupling chemistry. […] All data were analysed using BIA Evaluation Software 2.0 (GE Healthcare) to calculate kd, ka and KD using the 1:1 ligand binding model. […]

[1] = tested on: human microvascular ECs of dermal blood vessel origin (HMVEC-DBl); test: modified Boyden chamber, thrombin-stimulated FITC-dextran permeability, HMVEC-DBl; type: cell-based; settings: HMVEC-DBl; structural control alone; Fig1D
Protocol: ECs were first treated with Vasculotide (VT), PBS (vehicle/negative control), Ang1 (positive control), PEG-Cys (polyethylene glycol backbone), T7c (non-PEGylated CHHHRHSF peptides), or VT in the presence of 100-fold molar excess of T7c. The concentrations used, 10–20 ng/mL VT and 200–400 ng/mL Ang1, are estimated molar equivalents (0.71–1.43 nM). Thirty minutes later, ECs were stimulated with thrombin, 0.1% BSA (vehicle/negative control), or EDTA (positive control). Another 30mins later, the amount of FITC-dextran diffusion into the lower chambers (A, D) provides a measure of endothelial permeability. CMTPX-labeled tumor cells (TCs) were then dispensed into inserts, and the amount of TC fluorescence emitting from the underside of insert membranes after 20 h (B–C) or 28 h (E) reflects the efficiency of trans-endothelial TC migration. Representative fluorescent images (10×) of membrane undersides are shown in (C), where DAPI-stained nuclei of ECs/TCs are shown in blue, ‘extravasated’ CMTPX-labeled TCs are shown in red, and the # of CMTPX^+ pixels are shown numerically in red. Means ± SEM are shown (A,B,D,E). Three experiments (twice with HMVEC-LBl and once with HMVEC-DBl) were run with n = 3–5 inserts (independent biological replicates) per group and analyzed by two-sampled unpaired t-tests. […]
Endothelial cells (ECs) were grown on cell culture inserts with uncoated 8-μm-pore PET filter membranes to 100% confluency. […] After 30 min of thrombin stimulation or 4–6 h of TC-CM stimulation, FITC fluorescence (ex/em = 490/520 nm) was measured from a 50 μl sample of the lower chamber media. […] CMPTX fluorescence from migrated TCs was then quantified from 10× microscopy images using a MATLAB (MathWorks, Natick, MA, USA) script; five images (technical replicates) were analyzed per insert. […]

T1 sequence (Q02858 23-746 limits assumed): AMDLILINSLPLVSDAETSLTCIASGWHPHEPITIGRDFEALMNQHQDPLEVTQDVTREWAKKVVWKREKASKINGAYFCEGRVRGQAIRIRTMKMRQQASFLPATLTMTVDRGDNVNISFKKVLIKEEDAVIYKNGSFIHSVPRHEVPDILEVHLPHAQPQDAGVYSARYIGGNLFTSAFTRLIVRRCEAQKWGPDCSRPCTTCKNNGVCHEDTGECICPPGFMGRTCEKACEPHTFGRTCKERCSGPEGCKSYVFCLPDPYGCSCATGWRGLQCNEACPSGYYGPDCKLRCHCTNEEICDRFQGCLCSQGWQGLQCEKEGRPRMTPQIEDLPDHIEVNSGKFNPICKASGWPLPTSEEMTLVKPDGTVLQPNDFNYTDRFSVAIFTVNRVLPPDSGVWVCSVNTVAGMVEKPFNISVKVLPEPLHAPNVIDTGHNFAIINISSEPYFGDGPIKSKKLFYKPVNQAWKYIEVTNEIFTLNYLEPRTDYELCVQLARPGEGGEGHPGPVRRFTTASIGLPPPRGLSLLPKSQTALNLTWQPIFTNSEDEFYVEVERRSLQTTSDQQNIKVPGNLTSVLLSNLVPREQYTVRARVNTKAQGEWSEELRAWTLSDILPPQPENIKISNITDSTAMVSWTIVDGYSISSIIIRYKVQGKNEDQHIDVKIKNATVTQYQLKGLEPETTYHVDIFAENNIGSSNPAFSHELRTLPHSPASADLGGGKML

Which “binding to Tie2-Fc” value (mouse Tie2-Fc (mTie2-Fc)) does the source give for “CHHHRHSF [T7c, non-PEGylated CHHHRHSF peptides, reference compound]” here?
The value was “no binding to Tie2-Fc was detectable; also recorded: undetectable binding”.

And the “trans-endothelial permeability, structural components of VT” value [1]?
The value was “partial effects”.
